According to patent publication US20120282676A1, “Compositions and Methods for Enhancing Lipid Production in Marine Microalgae” (Old Queens, priority 2011, published 2012):

Assays:
[1] = test system: Phaeodactylum tricornutum; details: preliminary LC-MS analyses, FIG. 6
Excerpt: FIG. 6. Liquid-chromatography mass-spectrometry (LC-MS) plot representing the relative content of triacylglycerides (TAG) species between cells growing with nitrate or ammonium as nitrogen sources. Total lipids from P. tricronutum cells growing with nitrate or ammonium as nitrogen source (from the experiments described in the main text) were extracted with the Bligh-Dyer method (Bligh and Dyer) and analysed by liquid-chromatography mass-spectrometry (LC-MS).

[2] = test system: Phaeodactylum tricornutum; assay: Lipid body imaging (BODIPY, epifluorescence microscopy); format: cell-based; details: BODIPY staining, FIG. 4
Method: Intracellular lipid bodies were stained with 10 μg·ml^-1 BODIPY (4,4-difluoro-3a, 4a-diaza-s-indacene) probe (D-3922, Molecular Probes, Invitrogen, USA). Cells were subsequently observed with an inverted epifluorescence microscope Olympus IX71 (Olympus, Japan) equipped with a mercury X-CITE 120 lamp (EXFO, Canada), using the 482/536 nm excitation/emission filter. Images were acquired with a […] high-speed monochromatic cooled CCD camera system and IPLab for Mac (v3.9) for image processing and analysis.

[3] = test system: Phaeodactylum tricornutum; assay: Fatty acids extraction and analysis (FAME, GC-FID); format: cell-based; details: for more fatty acid per cell than the control: relative to NO3− replete cells (control)
Method: Fatty acid methyl esters (FAME) extraction and methylation was based on a method developed by Rodriguez-Ruiz et al., 1998. […] The vials were sealed with a Teflon-lined cap and boiled in a water-bath for 1 h. After incubation the vials were cooled to room temperature and 1 ml of milliQ water was added to each sample. Samples were vortexed and centrifuged (5 min, 3000 rpm) to allow phase separation and the top […] phases were transferred with glass-pipettes to GC vials with Teflon-lined caps (Fisher Scientific). FAME analyses were performed in a gas-chromatographer (GC 2010 Shimadzu, Japan) equipped with a TR-FAME (0.25 μm×60 m) column (Thermo electron corporation, USA) and a flame ionization detector (FID). Helium was used as the carrier gas at 26 psi. The injector and detector temperatures were 240° C. and 250° C. respectively. The time-oven temperature program was: 140° C. (5 min) increasing up to 240° C. at 4° C.·min^-1. FAMEs were identified by reference to authentic standards (SupelcoTM 37 component FAME, Sigma-Aldrich) processed and analyzed under the same conditions.

[4] = test system: Phaeodactylum tricornutum; assay: Growth of P. tricornutum cultures in different nitrogen regimes (cell densities, Coulter counter); format: cell-based; details: relative to the control (NO3+Mo)
Method: This was also the reason to perform all experiments in artificial medium. […] During the period of acclimation the cultures were maintained at 18° C., under continuous light using liner cool fluorescent lamps emitting white light at 300 μmol quanta·m^-2·s^-1, and 0.2 μm filtered air bubbling. Periodic dilutions with fresh media were also executed to main the cells in exponential phase of growth. […] The light intensity and temperature were maintained as described above. After 3 days (72 h) of growth samples were collected and processed for further analyses (described bellow). Experiments were performed at least in triplicate. The cellular densities were monitored with a Coulter counter multisizer 3 (Beckman Coulter Inc, Fullerton, Calif., USA).

[5] = test system: nitrate reductase (NR) protein; assay: NR western-blot; format: cell-based, Phaeodactylum tricornutum; details: FIG. 2
Method: Protein concentrations were determined with the bicinchoninic acid method (BCA, Pierce). […] Blots were probed for 1 h with anti-NR assimilatory (1:500) purchased from Agrisera (part no. AS08-310). Subsequently, an HRP-conjugated polyclonal goat anti-rabbit IgC antibody (Pierce, 1:10000) was used followed by chemifluorescence detection (Amersham™ ECL Plus, RPN2132). Image acquisition was performed with a molecular imager XR+ system (BIORAD, USA).

[6] = test system: Selenastrum capricornutum; details: sodium tungsten in small concentration (≦400 μM); Strigul et al. 2009; cited from earlier work
[7] = test system: Phaeodactylum tricornutum; assay: Metabolite profiling (LC-MS/MS); format: cell-based; details: W-mediated NR inactivation of NO3− grown cells
Method: Metabolite profiles were obtained via the method described by Bennette et al. (2010). Cells were quenched via rapid filtration of 14.3 million cells followed by immediate transfer of filters to 1.8 mL of 80:20 methanol:water at −20° C. in 35×10 mm Petri dishes. Filters were incubated at −20° C. for 15 minutes and scraped clean of cells in the extraction solvent. The 1.8 mL of extraction solvent with cells was transferred to 2 mL eppendorf tubes, followed by a 0.25 mL 80:20 methanol:water at −20° C. wash of the filter to collect remaining quenched cell material. The eppendorf tubes were spun at 4° C., and supernatant was collected. To the cell pellet, 100 μL 80:20 methanol:water at −20° C. was added, vortexed, incubated at −20° C. for 15 minutes, and pelletted. The 100 μL was combined with the original supernatant, and 50 μL transferred to GC vials. […] Standards for each metabolite, run with sample background, were used for quantification. The column used was a Synergi 2.5μ hydro RP 100A, size 100×2 mm (Phenomonex, Torrance, Calif., USA).

Compound	TAG species relative to NO3− grown cells [1]	number of lipid bodies per cell [2]	more fatty acid per cell than the control ([3]; 3 days) [%]	decrease of growth rate [4] [%]	more total fatty acid than with NO3− (Dunaliella terciolecta; D. terciolecta, NH4+ as nitrogen source) [%]	NR protein band (approximately 100 kDa) in western-blot [5]	effect on growth [6]	glutamate and glutamine levels, share of control levels [7]	Fatty acids cell^−1 (total fatty acid) ([3]; P. tricornutum, 3 days, mean ± SD, n ≧ 3) [pg]	higher rate of fatty acid accumulated per unit volume ([3]; W added to NH4+ growing cultures, compared to all the other situations, FIG. 1B)	average growth rate (Dunaliella terciolecta; D. terciolecta, W in conjunction with NH4+)	more fatty acid per unit volume than nitrate-grown cultures (Dunaliella terciolecta; D. terciolecta, W in conjunction with NH4+, after 3 days, FIG. 7) [%]	higher rates of lipid production per unit biomass than in controlled conditions (Dunaliella terciolecta; tungsten in combination with ammonium, organism not given) [%]
Cl.N [NH4+, NH4Cl]	all TAG species of P. tricornutum NH4+ grown cells increase	very high numbers	≥ 40	10	13	weak band							
[Na+].[Na+].[O]=[W](=[O])([O-])[O-] [W, sodium tungsten]			40				stimulated growth	about 10%	3.99 ± 0.24	over 30%	increased the average growth rate	88	87
